Each structure is given as a SMILES string. Calls of active or inactive are those of the source.

For one assay, the target named is T1, Bcl-2-related protein A1 (Mus musculus, UniProt Q07440).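 Further: confirmatory dose–response counterscreen on Bfl-1, used to check hits from a UBC13 polyubiquitin inhibitor campaign.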
T1 sequence (Q07440 whole entry): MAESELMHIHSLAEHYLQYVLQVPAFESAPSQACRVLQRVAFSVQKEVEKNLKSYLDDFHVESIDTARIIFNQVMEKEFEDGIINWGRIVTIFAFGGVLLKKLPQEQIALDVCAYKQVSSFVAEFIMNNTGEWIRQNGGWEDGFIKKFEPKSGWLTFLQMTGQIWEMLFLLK
The class given is functional.

In assay [1] the target is T2, Ubiquitin-conjugating enzyme E2 N (Homo sapiens, UniProt P61088).
T2 sequence (P61088 whole entry): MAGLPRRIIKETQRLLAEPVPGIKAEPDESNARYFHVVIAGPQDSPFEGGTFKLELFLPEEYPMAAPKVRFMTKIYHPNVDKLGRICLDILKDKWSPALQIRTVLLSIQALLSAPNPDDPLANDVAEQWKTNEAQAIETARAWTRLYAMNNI
Format: functional.

Assay [2] has as its target T2, Ubiquitin-conjugating enzyme E2 N. Format: functional. This is another data set of the same source.
The next assay concerns the target T3, ORF 73 (Human herpesvirus 8, UniProt O40947).
T3 sequence (O40947 whole entry): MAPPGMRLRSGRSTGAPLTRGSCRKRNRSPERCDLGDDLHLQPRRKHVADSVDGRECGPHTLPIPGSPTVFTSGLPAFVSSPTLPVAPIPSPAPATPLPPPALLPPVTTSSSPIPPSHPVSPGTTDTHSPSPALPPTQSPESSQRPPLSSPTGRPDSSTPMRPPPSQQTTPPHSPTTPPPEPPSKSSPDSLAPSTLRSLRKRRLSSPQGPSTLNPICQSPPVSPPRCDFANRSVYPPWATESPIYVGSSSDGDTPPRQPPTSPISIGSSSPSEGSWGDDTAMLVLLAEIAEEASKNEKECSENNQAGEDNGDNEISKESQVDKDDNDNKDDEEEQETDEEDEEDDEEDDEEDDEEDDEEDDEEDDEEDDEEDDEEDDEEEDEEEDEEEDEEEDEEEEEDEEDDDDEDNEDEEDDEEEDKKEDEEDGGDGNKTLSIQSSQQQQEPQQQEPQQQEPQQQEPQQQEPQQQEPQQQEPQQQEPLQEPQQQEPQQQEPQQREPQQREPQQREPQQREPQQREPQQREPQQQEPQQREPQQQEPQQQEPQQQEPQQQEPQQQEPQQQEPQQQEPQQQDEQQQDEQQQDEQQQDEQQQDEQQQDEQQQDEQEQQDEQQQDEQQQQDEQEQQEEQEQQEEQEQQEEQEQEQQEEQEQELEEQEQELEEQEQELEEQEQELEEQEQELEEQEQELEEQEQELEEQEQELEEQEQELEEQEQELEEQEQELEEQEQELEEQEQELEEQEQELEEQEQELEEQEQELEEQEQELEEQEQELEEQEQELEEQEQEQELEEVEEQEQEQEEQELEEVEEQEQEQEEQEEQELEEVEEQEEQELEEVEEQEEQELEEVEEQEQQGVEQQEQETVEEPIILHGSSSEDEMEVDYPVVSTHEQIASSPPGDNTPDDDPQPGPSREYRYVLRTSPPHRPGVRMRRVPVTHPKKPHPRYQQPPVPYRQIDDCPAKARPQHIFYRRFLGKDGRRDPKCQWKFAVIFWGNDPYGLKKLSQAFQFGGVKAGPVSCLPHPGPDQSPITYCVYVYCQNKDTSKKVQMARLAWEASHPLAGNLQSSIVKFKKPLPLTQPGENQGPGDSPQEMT
The experiment in a line: inhibitors of C-LANA binding to LBS DNA, dose response, biochemical, fluorescence polarization, cherry-picked samples (AID 504725).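 Further: fluorescence polarization of a labeled DNA duplex reporting LANA DNA binding; potency is for inhibitors that block LANA binding to the DNA.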 Details: species or system Human gammaherpesvirus 8. (In fluorescence polarisation assays a small probe gives low polarisation when free and higher when bound to something large.)

For assay [3], the target named is T4, RNA-binding protein pos-1 (Caenorhabditis elegans, UniProt G5EF15).
T4 sequence (G5EF15 whole entry): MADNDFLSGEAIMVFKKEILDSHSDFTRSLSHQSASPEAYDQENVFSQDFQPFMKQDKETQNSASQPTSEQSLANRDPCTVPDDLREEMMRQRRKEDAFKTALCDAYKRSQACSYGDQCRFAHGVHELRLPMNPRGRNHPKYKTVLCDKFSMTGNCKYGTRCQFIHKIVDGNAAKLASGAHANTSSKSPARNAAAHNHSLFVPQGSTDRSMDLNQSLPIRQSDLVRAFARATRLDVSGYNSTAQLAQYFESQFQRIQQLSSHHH
The experiment in a line: inhibitors of POS-1/mex-3 RNA binding, dose response, biochemical, fluorescence polarization (AID 1964).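 Further: purified POS-1 fused to maltose binding protein made in E. coli; potency of compounds blocking POS-1 binding to fluorescent RNA.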

Assay [4] relates to Streptococcus sp. 'group A'. The experiment in a line: growth inhibition of control SK(-) GAS strain, dose response, counter-screen for streptokinase expression inhibitor project, luminescence, kanamycin, BacTiterGlo, confirmation (AID 1900). Format: functional, organism-based.
Assay [5] is described as follows: A Cell Based Secondary Assay To Explore Cytotoxicity of Compounds that Sensitize Mycobacterium Tuberculosis to Beta-Lactam Antibiotics. Format: functional.
In assay [6] the target is T5, Zinc finger protein mex-5 (Caenorhabditis elegans, UniProt Q9XUB2).
T5 sequence (Q9XUB2 whole entry): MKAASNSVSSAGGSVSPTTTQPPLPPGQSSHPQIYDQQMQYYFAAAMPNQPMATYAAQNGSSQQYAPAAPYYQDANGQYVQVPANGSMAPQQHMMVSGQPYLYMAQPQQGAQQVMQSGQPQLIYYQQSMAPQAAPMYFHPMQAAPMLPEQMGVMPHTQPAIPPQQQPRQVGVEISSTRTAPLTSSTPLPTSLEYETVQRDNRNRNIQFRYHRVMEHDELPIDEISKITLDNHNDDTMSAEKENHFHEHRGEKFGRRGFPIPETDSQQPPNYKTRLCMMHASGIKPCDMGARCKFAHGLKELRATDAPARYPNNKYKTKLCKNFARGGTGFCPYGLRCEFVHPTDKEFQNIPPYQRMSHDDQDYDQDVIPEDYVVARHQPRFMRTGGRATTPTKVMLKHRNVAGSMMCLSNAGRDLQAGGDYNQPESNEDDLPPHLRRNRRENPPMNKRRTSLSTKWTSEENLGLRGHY
The experiment in a line: MEX-5/TCR-2 RNA interaction inhibitors, dose response, biochemical, C. elegans, fluorescence polarization (AID 1960).

The target of another assay is T6, Streptokinase A (Streptococcus pyogenes serotype M1, UniProt P10520).
T6 sequence (P10520 whole entry): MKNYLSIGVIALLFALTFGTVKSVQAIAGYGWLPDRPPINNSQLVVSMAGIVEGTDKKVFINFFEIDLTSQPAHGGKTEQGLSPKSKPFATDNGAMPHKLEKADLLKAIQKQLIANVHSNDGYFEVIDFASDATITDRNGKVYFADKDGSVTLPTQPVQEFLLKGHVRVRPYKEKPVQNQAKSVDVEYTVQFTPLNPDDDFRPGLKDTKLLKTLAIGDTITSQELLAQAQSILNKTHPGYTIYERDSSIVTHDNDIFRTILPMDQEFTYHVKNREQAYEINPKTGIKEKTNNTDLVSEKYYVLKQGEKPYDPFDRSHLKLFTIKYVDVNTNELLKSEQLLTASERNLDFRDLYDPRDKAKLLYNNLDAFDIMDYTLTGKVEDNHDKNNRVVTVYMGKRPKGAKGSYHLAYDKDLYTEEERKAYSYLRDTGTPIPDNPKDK
The experiment in a line: S. pyogenes streptokinase expression inhibitors, potency, dose response, plasminogen activation absorbance, OD405 (AID 1914).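 Further: secreted streptokinase activity via plasminogen activation per viability signal from cell pellet.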 Format: functional, Streptococcus pyogenes M1 GAS.

In another assay the test system is Streptococcus. The assay can be described thus: Group A Streptococcus viability loss, dose response, counter-screen for streptokinase expression inhibitor project, luminescence, BacTiterGlo (AID 1915).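 Further: potency for reduction of bacterial viability or growth.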 The class given is functional, organism-based. (The purpose of a counterscreen is to sort out artefacts and off-target activity.)
The target of assay [7] is T7, Endoribonuclease toxin MazF (Escherichia coli K-12, UniProt P0AE70).
T7 sequence (P0AE70 whole entry): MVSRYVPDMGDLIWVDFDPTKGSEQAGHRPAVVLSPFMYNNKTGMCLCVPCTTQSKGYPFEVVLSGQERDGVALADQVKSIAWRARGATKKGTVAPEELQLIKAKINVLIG
The experiment in a line: MazF toxin RNase activators, dose response, biochemical, fluorescence, single-stranded RNA substrate, uHTS hits (AID 588481). The class given is functional.

The target of assay [8] is T7, Endoribonuclease toxin MazF. The assay can be described thus: fluorescent RNA oligo signal without MazF, dose response, counter-screen for MazEF activator project, biochemical, fluorescence, single-stranded RNase substrate (AID 588502). The class given is functional.
In assay [9] the target is Delta-type opioid receptor (Homo sapiens, UniProt P41143). The assay can be described thus: Counterscreen for agonists of heterodimerization of the mu 1 (OPRM1) and delta 1 (OPRD1) opioid receptors: Luminescence-based cell-based high throughput dose response assay to identify agonists of OPRD1 homodimerization. [Related pubchem assays (depositor defined):AID504326, AID504355, AID504692, AID504904, AID504905]. Format: functional.

For a further assay, the target named is Mu-type opioid receptor (Homo sapiens, UniProt P35372). The experiment in a line: Counterscreen for agonists of heterodimerization of the mu 1 (OPRM1) and delta 1 (OPRD1) opioid receptors: Luminescence-based cell-based high throughput dose response assay to identify agonists of OPRM1 homodimerization. The class given is functional.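 Further: U2OS cells expressing OPRM1 and beta-arrestin as split beta-galactosidase partners.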
For assay [10], the target named is 5-hydroxytryptamine receptor 5A (Homo sapiens, UniProt P47898). The assay can be described thus: Counterscreen for agonists of OPRM1-OPRD1 heterodimerization: luminescence-based cell-based high throughput dose response assay to identify agonists of 5-hydroxytryptamine (serotonin) 5A receptor (HTR5A). [Related pubchem assays (depositor defined):AID504326, AID504355, AID504692, AID504904, AID504905]. Format: functional.

Another assay deals with Cytochrome P450 2C9 (Homo sapiens, UniProt P11712).
The target of assay [11] is T8, Calpain-2 catalytic subunit (Sus scrofa, UniProt P43367).
T8 sequence (P43367 whole entry): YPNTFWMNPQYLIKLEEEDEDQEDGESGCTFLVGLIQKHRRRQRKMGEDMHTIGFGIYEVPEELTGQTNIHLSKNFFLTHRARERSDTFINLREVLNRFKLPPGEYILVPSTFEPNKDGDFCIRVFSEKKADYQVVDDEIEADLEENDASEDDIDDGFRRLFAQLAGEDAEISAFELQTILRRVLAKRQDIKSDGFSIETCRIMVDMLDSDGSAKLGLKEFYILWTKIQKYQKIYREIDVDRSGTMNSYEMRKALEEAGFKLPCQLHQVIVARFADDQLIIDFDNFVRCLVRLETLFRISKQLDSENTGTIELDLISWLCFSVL
The assay can be described thus: pig calpain II inhibitor potency, dose response, biochemical, fluorogenic peptide substrate (AID 1420). The class given is functional.

Sequence of Delta-type opioid receptor (P41143 whole entry): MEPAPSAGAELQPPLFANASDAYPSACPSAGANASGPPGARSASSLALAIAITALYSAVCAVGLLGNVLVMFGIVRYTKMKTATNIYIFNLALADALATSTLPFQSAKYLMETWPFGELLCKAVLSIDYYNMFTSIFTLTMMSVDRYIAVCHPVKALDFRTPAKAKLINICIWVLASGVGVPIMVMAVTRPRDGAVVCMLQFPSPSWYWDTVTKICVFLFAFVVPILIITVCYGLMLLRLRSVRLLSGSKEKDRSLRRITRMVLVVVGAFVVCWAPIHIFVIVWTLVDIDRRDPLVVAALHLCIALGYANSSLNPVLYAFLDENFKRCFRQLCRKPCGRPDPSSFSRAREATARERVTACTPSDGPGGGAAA
Sequence of Mu-type opioid receptor (P35372 whole entry): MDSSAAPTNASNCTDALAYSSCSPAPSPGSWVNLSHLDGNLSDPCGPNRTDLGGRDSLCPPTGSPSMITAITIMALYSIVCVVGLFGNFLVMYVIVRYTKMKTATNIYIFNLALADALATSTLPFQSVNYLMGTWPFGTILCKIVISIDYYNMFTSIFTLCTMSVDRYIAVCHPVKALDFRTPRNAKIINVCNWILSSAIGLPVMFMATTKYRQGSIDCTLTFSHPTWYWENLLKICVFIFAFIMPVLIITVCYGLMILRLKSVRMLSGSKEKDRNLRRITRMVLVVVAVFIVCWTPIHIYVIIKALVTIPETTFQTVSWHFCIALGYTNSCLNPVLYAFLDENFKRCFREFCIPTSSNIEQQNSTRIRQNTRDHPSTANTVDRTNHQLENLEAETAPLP
Sequence of 5-hydroxytryptamine receptor 5A (P47898 whole entry): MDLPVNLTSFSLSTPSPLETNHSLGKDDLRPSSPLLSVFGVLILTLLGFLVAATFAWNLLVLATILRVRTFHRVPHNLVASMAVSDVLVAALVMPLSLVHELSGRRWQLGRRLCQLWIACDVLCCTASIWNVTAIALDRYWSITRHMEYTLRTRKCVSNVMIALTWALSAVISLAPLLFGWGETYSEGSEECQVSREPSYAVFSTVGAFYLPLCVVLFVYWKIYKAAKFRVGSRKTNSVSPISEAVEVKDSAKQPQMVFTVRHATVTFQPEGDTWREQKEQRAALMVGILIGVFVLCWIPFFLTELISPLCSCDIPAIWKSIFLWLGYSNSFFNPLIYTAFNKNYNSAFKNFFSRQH
Sequence of Cytochrome P450 2C9 (P11712 whole entry): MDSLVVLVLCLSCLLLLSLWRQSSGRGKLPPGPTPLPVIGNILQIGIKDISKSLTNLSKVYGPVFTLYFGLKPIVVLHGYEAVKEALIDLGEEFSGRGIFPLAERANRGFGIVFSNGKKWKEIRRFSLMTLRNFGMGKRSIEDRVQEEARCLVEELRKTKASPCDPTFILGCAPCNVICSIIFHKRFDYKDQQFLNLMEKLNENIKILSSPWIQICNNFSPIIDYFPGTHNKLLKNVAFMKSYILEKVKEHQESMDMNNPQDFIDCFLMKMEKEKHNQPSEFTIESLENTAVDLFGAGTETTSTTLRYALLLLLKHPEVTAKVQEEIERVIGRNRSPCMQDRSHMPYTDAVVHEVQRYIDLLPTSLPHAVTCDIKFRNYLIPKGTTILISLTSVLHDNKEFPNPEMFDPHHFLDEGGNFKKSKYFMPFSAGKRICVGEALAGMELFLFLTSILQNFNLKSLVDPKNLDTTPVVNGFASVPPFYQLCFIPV

Consider `Cc1nc(N)sc1C(=O)N/N=C/c1cccnc1`, for which the IC50 at Bcl-2-related protein A1 is > 20 µM (inactive); in assay [1], 1.68 µM (active); in assay [2], 1.89 µM (active).

Take `Cc1cc(O)c2c(n1)c(C)cc1[nH]c(C)c(C)c12`: the AC50 at ORF 73 is 42.3 µM (active).

Turning to `CC1=Nc2ccccc2/C1=C\c1nc(-c2ccc(F)cc2)oc1O`, the EC50 is > 300 µM (not active) in [3]; 8.82 µM (active) in assay [4]; 5.53 µM (active) in [6]; 16.6 µM (active) at Streptokinase A; > 150 µM (not active) with Streptococcus; > 99 µM (inactive) in assay [7]. Besides, the EC50 in assay [8] was 55.9 µM (inactive). Also, the CC50 in [5] is > 40 µM (active).

For `COc1cccc(NC(=O)CSc2nc3ccccc3c(=O)n2Cc2cccs2)c1`, the IC50 was > 20 µM (inactive) at Bcl-2-related protein A1, 19.3 µM (active) in assay [1] and > 20 µM (inactive) in assay [2].

In the case of `COc1cc(C2C(C#N)=C(N)N(c3sc4c(c3C#N)CCCC4)C3=C2C(=O)CC(C)(C)C3)cc(OC)c1OC` (stereo unspecified), the EC50 (in assay [9]; at Mu-type opioid receptor; in assay [10]) was > 92.5 µM (inactive) each time. The AC50 at Cytochrome P450 2C9 is 12.6 µM (inconclusive).

Consider `C#CCOCCOCCOCCNc1nc(N2CCN(C(=O)[C@H](CCCCN)n3cc(CN)nn3)CC2)nc(N2CCN(C(=O)[C@H](CCCCN)n3cc([C@@H](N)[C@H](C)CC)nn3)CC2)n1`, for which the IC50 on Bcl-2-related protein A1 is > 20 µM (inactive); in assay [1], 4.49 µM (active); in assay [2] it was 3.13 µM (active).

For `CN(C)C(CNC(C(=O)Nc1ccc([N+](=O)[O-])cc1Br)c1ccccc1)c1ccccc1` (stereo unspecified), the IC50 in [11] is on record as 4.94 µM (not active). Moreover, the EC50 (in assay [9]; on Mu-type opioid receptor; in assay [10]) was > 92.5 µM (inactive) throughout.

The term IC50 denotes the concentration that gives 50% inhibition. What is called AC50 is the midpoint of the concentration-response curve, whichever way the signal moves. As usually defined, the EC50 is the concentration that produces a half-maximal response. The term CC50 denotes the concentration that lowers cell viability or growth by half.

Source of the values: ChEMBL document CHEMBL1201862, “PubChem BioAssay data set” (2004).
